Source: patent publication US10189796B2, “[4-(1,3,3-trimethyl-2-oxo-3,4-dihydro-1H-quinoxalin-7-yl)phenoxy]ethyloxy compound or salt thereof” (SANTEN PHARMACEUTICAL CO., LTD., priority 2015, dated 2019)

Assays:
[1] = test system: ovalbumin actively sensitized allergic conjunctivitis model of rabbits; assay: Allergic conjunctivitis model evaluation test; assay type: in vivo, rabbit; details: 1% suspension, eye drop 50 μL four times a day for 4 days plus once; 0.5 hour after challenge
Description: In order to evaluate an anti-allergic action of the present compounds on allergic conjunctivitis, an inhibitory effect on hyperemia in an ovalbumin actively sensitized allergic conjunctivitis model of rabbits was investigated. Incidentally, this effect was evaluated by calculating an inhibitory ratio from the score of the base agent administered group (control group) and the score of the test compound administered group.
A base agent containing a general additive(s) was added to the test compound to prepare test compound suspensions with 1% (WN) and 3% (W/V).
By using male JW rabbits, ovalbumin (200 μg/mL/physiological saline solution) adsorbed on aluminum hydroxide gel was injected 200 μL per eye into bulbar conjunctiva of both eyes of rabbits, respectively, to perform active sensitization.
After 14 days from sensitization or later, the test compound suspension was eye-dropped four times a day for 4 days, and then, at the next day, it was eye-dropped (instillation dose: 50 μL/time) once to both eyes. Incidentally, the base agent was similarly eye-dropped to the base agent administered group (control group).
One hour after the final eye dropping of the test compound suspension, a physiological saline solution containing 0.02% (W/V) of ovalbumin was administered from rabbit ear vein at a dose of 1.5 mL per 1 kg of rabbit to induce allergic conjunctivitis.
After 0.5 hour of the challenge, the degree of hyperemia symptoms of both ocular conjunctiva of rabbits was evaluated according to the following criteria, and the average value of the total of these scores was calculated. […]

[2] = test system: TNFα production in rat whole blood; assay: TNFα production inhibitory action evaluation test (LPS stimulation ex vivo, ELISA); assay type: cell-based; details: 20 hours, 200 μM test compound solution 10 μL/well, DEX treated group = 100, read-out: TNFα production inhibitory ratio (% DEX)
Description: In order to evaluate an action of the present compound as a GR agonist, a TNFα production inhibitory action in rat whole blood after LPS stimulation ex vivo was investigated. For the measurement of the TNFα production amount, the ELISA method (manufactured by R&D Systems, Cat No. RTA00) was used, and a procedure was carried out according to the protocol attached thereto. Hereinafter, the specific method will be described.
LPS solution: LPS was dissolved in PBS(−) and diluted with RPMI 1640 to prepare an LPS solution with a concentration of 2 μg/mL.
After the test compound was dissolved in dimethylsulfoxide, the solution was diluted with PBS(−) to prepare 200 μM of a test compound solution. In addition, DEX was similarly dissolved to prepare 200 μM of a DEX solution, and a TNFα production inhibitory ratio of DEX was measured, and used for calculation of Efficacy (% DEX).
• 1) Blood was collected from 3 to 5 rats using an injection syringe treated with heparin from the abdominal aorta under isoflurane anesthesia. The rats confirmed death after lething the whole blood. • 2) The blood of 3 to 5 rats pooled in a 96-well round bottom culture plate was seeded at each 180 μL/well. • 3) It was cultured (37° C., 5% CO2, 95% air) for about 1 hour. • 4) The test compound solution was added each 10 μL/well, and cultured for 1 hour. • 5) LPS solution was added each 10 μL/well. • 6) The sample in which 2% dimethylsulfoxide-containing PBS(−) was added with each 10 μL/well in place of each test compound solution, and RPMI 1640 was added with each 10 μL/well in place of the LPS solution was made a negative control. • 7) The sample in which 2% dimethylsulfoxide-containing PBS(−) was added with each 10 μL/well in place of each test compound solution was made a positive control. • 8) After completion of 20 hours cultivation, the supernatant was recovered and the amount of TNFα released in the supernatant was measured by using an ELISA Kit. • 9) The TNFα production inhibitory ratio was calculated according to the following calculation formula. (Calculation of TNFα Production Inhibitory Ratio)
TNFα production inhibitory ratio (%) was calculated according to the following formula. TNFα production inhibitory ratio (%)=100×{1−(TNFα production amount of each test compound solution−average value of TNFα production amount of negative control group)/(average value of TNFα production amount of positive control group−average value of TNFα production amount of negative control group)}(%)
Further, a TNFα production inhibitory ratio (Efficacy (% DEX)) when the DEX treated group was made 100 was calculated. Efficacy (% DEX)=100×{(average value of TNFα production inhibitory ratio of each test compound solution)/(average value of TNFα production inhibitory ratio of DEX treated group)}(%)

[3] = molecular target: Recombinant human GR (Homo sapiens (Human), UniProt P04150); assay: GR competitive binding assay by fluorescence polarization; details: 20 μM test compound solution, 10 μL/well; 2 hours; DEX positive control; read-out: GR binding rate (%)
Chain of Recombinant human GR (P04150 whole entry): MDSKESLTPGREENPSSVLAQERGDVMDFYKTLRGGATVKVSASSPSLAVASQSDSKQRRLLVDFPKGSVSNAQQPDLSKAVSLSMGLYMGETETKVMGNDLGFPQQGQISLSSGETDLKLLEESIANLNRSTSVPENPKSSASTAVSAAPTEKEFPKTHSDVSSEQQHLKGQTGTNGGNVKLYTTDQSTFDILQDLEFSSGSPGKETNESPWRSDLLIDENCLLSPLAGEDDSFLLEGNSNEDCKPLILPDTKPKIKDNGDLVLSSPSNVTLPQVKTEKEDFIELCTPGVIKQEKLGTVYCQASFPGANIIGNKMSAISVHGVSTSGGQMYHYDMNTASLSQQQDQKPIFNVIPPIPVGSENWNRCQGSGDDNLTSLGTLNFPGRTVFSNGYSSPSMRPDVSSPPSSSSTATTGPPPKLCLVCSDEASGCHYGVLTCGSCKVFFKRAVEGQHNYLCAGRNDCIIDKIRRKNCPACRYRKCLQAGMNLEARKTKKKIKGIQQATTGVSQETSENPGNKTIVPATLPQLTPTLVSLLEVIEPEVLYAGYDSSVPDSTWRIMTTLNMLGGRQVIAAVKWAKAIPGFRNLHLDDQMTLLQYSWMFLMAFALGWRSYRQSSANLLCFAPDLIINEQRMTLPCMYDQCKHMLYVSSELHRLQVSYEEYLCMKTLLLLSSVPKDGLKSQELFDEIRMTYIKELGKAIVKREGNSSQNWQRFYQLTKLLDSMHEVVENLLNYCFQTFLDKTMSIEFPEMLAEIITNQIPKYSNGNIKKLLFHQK
Description: In order to evaluate a binding activity of the present compound to GR, a GR receptor competitor assay was carried out by a fluorescence polarization method. In the assay, a GR competitive binding assay kit (manufactured by Invitrogen, cat No. P2816) was used for the assay, and a procedure was carried out according to the protocol attached to the kit. Hereinafter, the specific method will be described.
GR screening buffer: A buffer containing 10 mM of potassium phosphate (pH 7.4), 20 mM of sodium molybdate (Na2MoO4), 0.1 mM of ethylene diamine tetraacetic acid (EDTA), 5 mM of dithiothreitol (DTT), 0.1 mM of stabilizing peptide and 2% of dimethylsulfoxide was prepared.
4×GS1 solution: Fluormone™ GS1, which is a fluorescent glucocorticoid ligand, was diluted with GR screening buffer, whereby a 4 nM solution was prepared.
4×GR solution: Recombinant human GR was diluted with GR screening buffer, whereby a 16 nM solution was prepared.
After a test compound was dissolved in dimethylsulfoxide, the resulting solution was diluted with GR screening buffer, whereby a 20 μM test compound solution was prepared. In addition, DEX was similarly dissolved, whereby a DEX solution with a […] concentration was prepared, and the solution was diluted with GR screening buffer, whereby a 2 mM DEX solution was prepared. DEX was used as positive control.
• 1) The test compound solution was added in an amount of 10 μL into each well of a 384-well plate. • 2) 4×GS1 solution and 4×GR solution were added in an amount of 5 μL into each well, respectively. • 3) GR screening buffer was added in an amount of 10 μL/well into each well in place of the test compound solution, which was made a negative control. • 4) A 2 mM of DEX was added in an amount of 10 μL/well into each well in place of the test compound solution, which was made a positive control. • 5) The plate was incubated in a dark place at room temperature for 2 hours, and fluorescence polarization of each well was measured. (Calculation Equation of GR Binding Ratio)
A GR binding ratio (%) was calculated from the following equation. GR binding ratio (%)=100×{1−(fluorescence polarization of test compound solution−average value of fluorescence polarization of positive control solution)/(average value of fluorescence polarization of negative control solution−average value of fluorescence polarization of positive control solution)}

inhibition at 10 µM [3]: > 99%
SMILES: COc1cc(OC[C@H](C)OP(=O)(O)O)ccc1-c1ccc2c(c1COc1cc(F)ccc1C)N(C)C(=O)C(C)(C)N2 [Compound 14-1, (S)-8-(5-fluoro-2-methylphenoxymethyl)-7-[4-(2-phosphonohydroxypropyl)oxy-2-methoxyphenyl]-1,3,3-trimethyl-3,4-dihydro-1H-quinoxalin-2-one]
Eye congestion inhibitory ratio (%) [1]: 22% | Emax [2]: 86%
